This passage reports IC50 results from PubChem BioAssay AID651961 (The Scripps Research Institute Molecular Screening Center, 2012).

For the assay, the system named is BLA reporter cell line, FRET fluorescence counterscreen. Kind of assay: beta-lactamase reporter inhibition, nonselective hits, late-stage follow-up, counter-screen for NOD2-RIPK2 interaction inhibitor project, cell-based, FRET fluorescence, dose response (AID 651961). For orientation: Counterscreens check selectivity or assay interference.

As usually defined, the IC50 is the point on the concentration scale where inhibition reaches its midpoint.

Active and inactive are the calls of the source. How the calls were made is not given here.

Consider `Cc1nc([N+](=O)[O-])c(Br)n1Cc1ccccc1`, for which the IC50 is > 49.8 µM (inactive).

Take `O=S(=O)(c1ccc(F)cc1)N1CCCCCC1`: the IC50 is > 49.8 µM (inactive).

`O=[N+]([O-])c1cccc(S(=O)(=O)N2CCCCCC2)c1`: the IC50 was > 49.8 µM (inactive).

`Cc1ncc([N+](=O)[O-])n1Cc1ccc(Cl)c(Cl)c1`: the IC50 was > 49.8 µM (inactive).

Take `Cc1cc(S(=O)(=O)N2CCCCCC2)ccc1F`: the IC50 is > 49.8 µM (inactive).

`Cc1ccc(C(C[N+](=O)[O-])n2nc(C)cc2C)cc1` (stereo unspecified): the IC50 was > 49.8 µM (inactive).

Take `Cc1ccc(S(=O)(=O)N2CCCCCC2)cc1[N+](=O)[O-]`: the IC50 was > 49.8 µM (inactive).

In the case of `O=S(=O)(c1ccccc1)N1CCCCCC1`, the IC50 was > 49.8 µM (inactive).

Take `O=[N+]([O-])c1cc(S(=O)(=O)N2CCCCCC2)ccc1F`: the IC50 was > 49.8 µM (inactive).

Consider `COc1ccc(C(C[N+](=O)[O-])n2nc(C)cc2C)cc1` (stereo unspecified), for which the IC50 was > 49.8 µM (inactive).

As to `Cc1nc([N+](=O)[O-])c(Br)n1Cc1ccc(Cl)c(Cl)c1`, the IC50 was > 49.8 µM (inactive).
